In series [1] the test system is M21 melanoma cells. The experiment in a line: XTT cell proliferation assay. The series is classed as cell-based. To be noted: Homo sapiens, anti-proliferative effect, FIG. 6. As for the experimental part: (§1) Cytotoxicity Assay. Cytotoxicity of ScA was assessed using the XTT cell proliferation assay. Briefly cells were plated on 96 well plates (5,000 per well) and incubated over night at 37° C. to allow for attachment and spreading. After 24 h, ScA was added from a DMSO stock, previously frozen at −80C as added directly from serial dilutions in DMSO at concentrations ranging from 100 uM to 100 fM. After 72 h, XTT (Aldrich Chemicals) was added to a final concentration of 250 ug/well. The plates were then incubated under standard tissue culture conditions until the control wells (DMSO) reached an OD value between 1.0-1.5. as measured at 450 nm using a microtiter plate reader. The cell viability-drug dilution profiles were obtained from sigma plots, and drug concentrations which inhibited growth by 50% were calculated from multiple runs. (IC50)

In series [2] the test system is Molt-4 T cell leukemia cells. The experiment in a line: XTT cell proliferation assay. The series is classed as cell-based. To be noted: Homo sapiens, anti-proliferative effect, FIG. 6. As for the experimental part: as §1
(Formazan colour is commonly taken as a measure of viable cells.)

Series [3] concerns PC3 prostate cancer cells. As to the kind of experiment: XTT cell proliferation assay. The series is classed as cell-based. As to conditions: Homo sapiens; anti-proliferative effect, FIG. 6. As to the method:
as §1

Series [4] relates to TJK304 cells. The experiment in a line: XTT cell proliferation assay. The series is classed as cell-based. To be noted: anti-proliferative effect, FIG. 6. As for the experimental part: as §1
The test system of series [5] is pancreatic metastatic mouse carcinoma cells. As to the kind of experiment: XTT cell proliferation assay. The series is classed as cell-based. To be noted: anti-proliferative effect, FIG. 6. As for the experimental part: as §1
Series [6] deals with NB7 neuroblastoma cells. The experiment in a line: XTT cell proliferation assay. To be noted: Homo sapiens, anti-proliferative effect, FIG. 6, caspase 8 deficient. The series is classed as cell-based. As to the method: (§2) Cell lines. Cells and cell lines were maintained in either DMEM or RPMI supplemented with 10% FCS. The caspase-deficient NB7 neuroblastoma cells have been previously described (33). C8-deficient and reconstituted jurkat cells were provided by Dr. Steve Hedrick (UCSD). Silencing of Caspase-8 gene expression in the A549 cells was performed through the use of delivering shRNA in a lentiviral format. Briefly 293 T cells were transfected with caspase-8, (Open Biosystems) or scrambled (Addgene) shRNAs in pLK0.1 lentiviral vector, together with lentiviral packaging plasmids (PMLDL, VSV-G and RSV-REV) using fugene6. The ratio of target ShRNAs and packaging plasmids was ShRNA/PMLDL/VSV-G/RSV-REV, 10/10/6/4 μg. Lentiviral supernatants from 293 T cells were harvested after 48 hours and used to infect A549 cells. Viral constructs were incubated for 24 h with A549 cell lines prior to replacing media with selective media containing puromycin (1 μg/ml). […]
(§3) Cytotoxicity Assay. Cytotoxicity of ScA was assessed using the XTT cell proliferation assay. […] The plates were then incubated under standard tissue culture conditions until the control wells (DMSO) reached an OD value between 1.0-1.5. as measured at 450 nm using a microtiter plate reader. The cell viability-drug dilution profiles were obtained from sigma plots, and drug concentrations which inhibited growth by 50% were calculated from multiple runs. […]

In series [7] the test system is NB7 caspase 8 positive cells. As to the kind of experiment: XTT cell proliferation assay. The series is classed as cell-based, human. As for the experimental part:
as §2, §3

Series [8] has as its system A-549 lung cancer cells. The experiment in a line: XTT cell proliferation / viability assay. The series is classed as cell-based, human. To be noted: for IC50: Homo sapiens. As to the method:
Cell lines. Cells and cell lines were maintained in either DMEM or RPMI supplemented with 10% FCS. The caspase-deficient NB7 neuroblastoma cells have been previously described (33). C8-deficient and reconstituted jurkat cells were provided by Dr. Steve Hedrick (UCSD). Silencing of Caspase-8 gene expression in the A549 cells was performed through the use of delivering shRNA in a lentiviral format. Briefly 293 T cells were transfected with caspase-8, (Open Biosystems) or scrambled (Addgene) shRNAs in pLK0.1 lentiviral vector, together with lentiviral packaging plasmids (PMLDL, VSV-G and RSV-REV) using fugene6. The ratio of target ShRNAs and packaging plasmids was ShRNA/PMLDL/VSV-G/RSV-REV, 10/10/6/4 μg. Lentiviral supernatants from 293 T cells were harvested after 48 hours and used to infect A549 cells. Viral constructs were incubated for 24 h with A549 cell lines prior to replacing media with selective media containing puromycin (1 μg/ml). The suppression of caspase-8 was verified by western blot.
as §1

The test system of series [9] is HUVEC primary endothelial cells. The experiment in a line: 72 h XTT assay for Huvec cell proliferation. The series is classed as cell-based, human. As for the experimental part:
FIG. 2A illustrates a microtiter plate 72 hour (h) XTT assay for Huvec cell proliferation (2500 cells/well seeded), showing serial dilutions of structurally diverse marine natural compounds. […] FIG. 2B graphically illustrates the data for this study.
as §1

Series [10] deals with Transgenic Tg(fli1:EGFP) zebrafish embryos. As to the kind of experiment: blood vessel formation in zebrafish. The series is classed as in vivo. As to conditions: for blood vessel growth and angiogenesis: 80 nM to 3 μM in the water, dose-dependent; for viability / acute toxicity to the fish: 24 hour period of the study. As to the method:
Zebrafish Experiments. Blood vessel formation in Zebrafish: Transgenic Tg(fli1:EGFP) zebrafish embryos were purchased from www.zfin.org as reported elsewhere (34). Adult fish and embryos were maintained according to “Zebrafish—A Practical Approach” (35). ScA compound in DMSO stock solution was diluted directly into the water and zebrafish intersegmental vessels were imaged using Nikon c1-si confocal microscope after the times specified. Raw image datasets were processed using IMARIS 3D™ image analysis software. All animal procedures were conducted in accordance with all appropriate regulatory standards under protocol #S06008 approved by the University of California San Diego (UCSD) Institutional Animal Care and Use Committee.

Series [11] is described as follows: partition from liquid phase into 100 nanometer liposomes (nanosomes). The series is classed as physicochemical. As for the experimental part:
Preparation of Liposomes. Cholesterol:Dope:Dspc:Sca:Dspe-Mpeg (in 1:1:1:0.16:0.16 molar ratio) in chloroform were taken in 30 mL glass culture tubes, dried under a stream of nitrogen gas and vacuum-dessicated for a minimum of 6 h to remove any residual organic solvent. The dried lipid film was hydrated in sterile deionized water in a total volume of 1 mL for a minimum of 12 h. Liposomes were vortexed for 2-3 minutes to remove any adhering lipid film and sonicated in a bath sonicator (ULTRASONIK 28X™) for 2-3 minutes at room temperature to produce multilamellar vesicles (MLV). MLVs were then sonicated with a Ti-probe (using a BRANSON450™ sonifier at 100% duty cycle and 25 W output power) in an ice bath for 1-2 minutes to produce small unilamellar vesicles (SUVs) as indicated by the formation of a clear translucent solution. The solution was pressure filtered in sequence though 200 and then 100 nm nucelopore polycarbonate membranes to obtain liposome nanoparticles of 100 nm with a polydispersity factor of less than 0.1.

Where two headings read alike, the source gives them in different places.

Broadly, the IC50 is the point on the concentration scale where inhibition reaches its midpoint.

For `C=CC/C=C/N(C)C(=O)CCCCCCCC/C=C/[C@H](CSSC[C@@H](/C=C/CCCCCCCCC(=O)N(C)/C=C/CC=C)NC(C)=O)NC(C)=O` [somocystinamide A, Somocystinamide A], the half-inhibitory concentration (IC50) in series [1] was 1280 nM; in series [2], 600 nM; in series [3], 970 nM; in series [4], 830 nM; in series [5], 8 nM; in series [6], 810 nM. The IC50 in series [7] (Homo sapiens, anti-proliferative effect, FIG. 6) was 12 nM; in series [8] (A549, anti-proliferative effect, FIG. 6), 46 nM; in series [8] (A549, percent cell viability, FIG. 16) it was 114 nM; in [9] (Homo sapiens, HUVEC, anti-proliferative effect, FIG. 6, read-out: IC50), 0.004 nM; in series [9] (cultured endothelial cells, XTT 72 hours) it was “picomolar range”. In [7] (relative to NB7 cells), the “sensitivity of the caspase 8 positive cells to ScA” value came out at 100 times. Further, in series [8] (lentivirus shRNA silencing of caspase 8 or caspase 3, FIG. 24), the “pro-apoptotic response induced by scA” value is “attenuate the pro-apoptotic response”. Also, the “loss in sensitivity to ScA” value in [8] (shRNA knockdown of caspase 8, FIG. 28E) is listed as “five-fold”. Also, in [9] (72 h XTT, 2500 cells/well, FIG. 2), the “cytotoxicity, concentration range” value is reported as “cytotoxicity in the nanomolar concentration range”. Further, the “blood vessel growth and angiogenesis” value was “potently inhibited angiogenesis” in [10]; “blocked blood vessel growth and angiogenesis” in [10] (listed as ScA). For the same compound, the “viability / acute toxicity to the fish” value in series [10] is given as “without acute toxicity”; in series [10] (listed as ScA), “all of the fish remained viable”. Besides, in [11], the “interchelation of ScA within the nanosomes” value is given as “essentially complete within thirty minutes”.
